In patent publication US20110135750A1, “ANTI-ALLERGEN COMBINATIONS OF CALCIUM AND LANTHANUM” (priority 2008, published 2011):

Molecular target: T1, Der p1 (Dermatophagoides pteronyssinus, UniProt P08176)
T1 construct: Allergen stock solutions were derived from the extraction of the rearing medium of dust mites Dermatophagoides pteronyssinus; from tissue; host or cells: rearing medium of dust mites Dermatophagoides pteronyssinus (crude extract)
T1 sequence (P08176 99-320): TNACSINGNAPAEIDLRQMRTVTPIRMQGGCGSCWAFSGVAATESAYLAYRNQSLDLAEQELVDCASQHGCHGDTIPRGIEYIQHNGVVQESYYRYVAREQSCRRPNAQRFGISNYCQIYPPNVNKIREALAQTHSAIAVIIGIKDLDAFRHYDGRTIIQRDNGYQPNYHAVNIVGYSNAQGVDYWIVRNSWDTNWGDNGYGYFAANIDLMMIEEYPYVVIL
Assay: Allergen denaturing efficacy on Der p1-treated tissue, ELISA
Type: biochemical
Details: for Efficacy (%) on Der p1: tissue treated at 100 ml/m^2
Protocol: Allergen stock solutions were derived from the extraction of the rearing medium of dust mites Dermatophagoides pteronyssinus or by the extraction of cat exposed tissues. Allergens were always stored or diluted in Phosphate Buffered Saline (PBS) of pH 7.4 containing NaCl 8 g/L, KH2PO4 0.2 g/L, Na2HPO4 1.15 g/L, KCl 0.2 g/L, Tween 20 0.5 ml/L.
A tissue (Triconet: 40% PP, 60% Viscose, 0.7 mm thickness, 70 g/m^2) was treated with known amount of antigen, allowed to dry overnight and then treated with the allergen denaturing composition at 100 ml/m^2. The next day, the tissue was extracted in 5 ml of PBS and the concentration of allergen was determined by ELISA. ELISA tests were carried out according to the instructions of the commercially available test kits with monoclonal antibodies (www.inbio.com).
Briefly, anti-Der p1 or anti-Fel d1 monoclonal antibodies are diluted 1/1000 in 50 mM carbonate-bicarbonate buffer, pH 9.6. and 100 μl is coated on a polystyrene microtiter well and allowed to incubate overnight at 4° C. Then, wells are washed 3 times with PBS containing 0.05% Tween 20, pH 7.4. (further called: wash step with PBS-T). After incubation with 100 μl 1% BSA in PBS-T for 30 minutes at room temperature, another wash step is executed. Then, 100 μl of diluted allergen standard or test samples is added to each well and incubated for 1 hour at room temperature. After a wash step, 100 μl per well of 1/1000 diluted biotinylated anti-Der p1 or anti-Fel d1 monoclonal antibody is added and incubated for 1 hour at room temperature. Then, another wash step is executed and 100 μl/well of a Streptavidin-Peroxidase (Sigma S5512, reconstituted in 1 ml distilled water) is added as a 1/1000 dilution in PBS-T and incubated for 30 minutes at room temperature. After a final wash step, 100 μl/well of 1 mM ABTS (2,2′-azino-bis(3-ethylbenzthiazoline-6-sulfonic acid)diammonium salt) in 70 mM citrate phosphate buffer, pH 4.2, containing 0.03% H2O2, is added. The assay was allowed to develop after dark green colouring of the highest concentration of the allergen standard. Optical density was read at 405 nm.
Standard allergen dilution curves were taken for calibration. The range in which allergens can be quantified is 0.2-20 ppb for Fel d1 and from 1-100 ppb for Der p1. Dilutions were made until the concentration was in the right order of magnitude to enable quantification and percent reduction by the allergen denaturing composition.
Possible synergy was investigated using Limpet's formula (Richter, D. L., Pestic. Sci. 1987, 19: 309-315): […]
where Ec is the expected additive response, or calculated activity, X is the observed percentage control when component A is applied alone and Y is the observed percentage control when component B is applied alone. Synergy was considered to occur when the observed effect, or measured activity, of a combination of both components was greater than the corresponding Ec value.

[Ca+2] [Ca^2+]
Efficacy (%) on Der p1 (Ca^2+ 0.05% alone): 0% | Efficacy (%) on Der p1 (Ca^2+ 0.125% alone): 0% | Efficacy (%) on Der p1 (Ca^2+ 0.5% alone): 28% | Efficacy (%) Expected value (Ec) (Ca^2+ 1%, La^3+ 0%): 46% | Efficacy (%) Measured value (Ca^2+ 1%, La^3+ 0%): 46% | Efficacy (%) Synergy (measured minus expected) (Ca^2+ 1%, La^3+ 0%): 0% | Efficacy (%) on Der p1 (Ca^2+ 2.0% alone): 96%

[La+3] [La^3+]
Efficacy (%) on Der p1 (La^3+ 0.01% alone): 12% | Efficacy (%) on Der p1 (La^3+ 0.05% alone): 0% | Efficacy (%) on Der p1 (La^3+ 0.2% alone): 0% | Efficacy (%) on Der p1 (La^3+ 1.0% alone): 100%
